Data reported in patent US11478471B2, “Methods and compositions for treating diabetes, metabolic syndrome and other conditions” (priority 2005, dated 2022).

Experiment: Toxicokinetics in the 28 day dog study of DIO-902 (with racemic ketoconazole group a);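 further: beagle dogs dosed orally once daily within a 28-day GLP study, 3 animals per sex per group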
Details: beagle, plasma, po, dogs; for concentration at 8 h / concentration at 12 h / concentration at 0 h / concentration at 1 h / concentration at 2 h / concentration at 4 h: Drug concentration in plasma; for Tmax: Tmax Range; for AUC(0-t): AUC(0-12)
[1] = female, 6.5 mg/kg, 6.5 mg/kg oral, day 28, F
[2] = female, 20 mg/kg, 20 mg/kg oral, day 28, F
[3] = female, 20 mg/kg, 20 mg/kg oral, day 1, F
[4] = male, 2 mg/kg, 2 mg/kg oral, day 28, M
[5] = male, 2 mg/kg, 2 mg/kg oral, day 1, M
[6] = male, 6.5 mg/kg, 6.5 mg/kg oral, day 28, M
[7] = male, 6.5 mg/kg, 6.5 mg/kg oral, day 1, M
[8] = male, 20 mg/kg, 20 mg/kg oral, day 1, M
[9] = male, 20 mg/kg, 20 mg/kg oral, day 28, M

Structure (SMILES): CC(=O)N1CCN(c2ccc(OC[C@@H]3CO[C@@](Cn4ccnc4)(c4ccc(Cl)cc4Cl)O3)cc2)CC1 [DIO-902, 2S,4R cis-1-acetyl-4-[4-[[2-(2,4-dichlorophenyl)-2-(1H-imidazol-1-ylmethyl)-1,3-dioxolan-4-yl]methoxyl]phenyl]piperazine]
- concentration at 8 h [1]: 1.27 µg/mL
- concentration at 12 h [1]: 0.34 µg/mL
- Tmax (female, 6.5 mg/kg, 6.5 mg/kg oral, day 1, F): 2 to 4 h
- Tmax [1]: 2 to 8 h
- AUC(0-t) (female, 20 mg/kg, 20 mg/kg oral, day 1, F, n = 2): 80.6 µg·h/mL
- AUC(0-t) [2]: 77.9 µg·h/mL
- Cmax [3]: 14.7 µg/mL
- Cmax [2]: 9.95 µg/mL
- concentration at 0 h [3]: < 0.25 µg/mL
- concentration at 1 h [3]: < 0.25 µg/mL
- concentration at 2 h [3]: 0.65 µg/mL
- concentration at 4 h [3]: 9.72 µg/mL
- concentration at 8 h [3]: 9.95 µg/mL
- concentration at 12 h [3]: 5.44 µg/mL
- concentration at 0 h [2]: 2.88 µg/mL
- concentration at 1 h [2]: 1.78 µg/mL
- concentration at 2 h [2]: 2.43 µg/mL
- concentration at 4 h [2]: 6.42 µg/mL
- concentration at 8 h [2]: 9.83 µg/mL
- concentration at 12 h [2]: 6.53 µg/mL
- Tmax [3]: 4 to 8 h
- Tmax [2]: 8 to 12 h
- AUC(0-t) (male, 2 mg/kg, 2 mg/kg oral, day 1, M, n = 1): 2.39 µg·h/mL
- AUC(0-t) [4]: 3.26 µg·h/mL
- Cmax [5]: 0.51 µg/mL
- Cmax [4]: 0.68 µg/mL
- concentration at 0 h [5]: < 0.25 µg/mL
- concentration at 1 h [5]: 0.4 µg/mL
- concentration at 2 h [5]: 0.45 µg/mL
- concentration at 4 h [5]: < 0.25 µg/mL
- concentration at 8 h [5]: < 0.25 µg/mL
- concentration at 12 h [5]: < 0.25 µg/mL
- concentration at 0 h [4]: < 0.25 µg/mL
- concentration at 1 h [4]: 0.66 µg/mL
- concentration at 2 h [4]: 0.54 µg/mL
- concentration at 4 h [4]: 0.38 µg/mL
- concentration at 8 h [4]: < 0.25 µg/mL
- concentration at 12 h [4]: < 0.25 µg/mL
- Tmax [5]: 1 to 2 h
- Tmax [4]: 1 to 4 h
- AUC(0-t) (male, 6.5 mg/kg, 6.5 mg/kg oral, day 1, M, n = 2): 12.2 µg·h/mL
- AUC(0-t) [6]: 14.7 µg·h/mL
- Cmax [7]: 2 µg/mL
- Cmax [6]: 2.01 µg/mL
- concentration at 0 h [7]: < 0.25 µg/mL
- concentration at 1 h [7]: 1.19 µg/mL
- concentration at 2 h [7]: 1.62 µg/mL
- concentration at 4 h [7]: 1.25 µg/mL
- concentration at 8 h [7]: 0.41 µg/mL
- concentration at 12 h [7]: 0.4 µg/mL
- concentration at 0 h [6]: < 0.25 µg/mL
- concentration at 1 h [6]: 1.17 µg/mL
- concentration at 2 h [6]: 1.39 µg/mL
- concentration at 4 h [6]: 1.54 µg/mL
- concentration at 8 h [6]: 1.33 µg/mL
- concentration at 12 h [6]: 0.88 µg/mL
- Tmax [7]: 1 to 4 h
- Tmax [6]: 1 to 8 h
- AUC(0-t) [8]: 60.6 µg·h/mL
- AUC(0-t) [9]: 80 µg·h/mL
- Cmax [8]: 9.38 µg/mL
- Cmax [9]: 9.94 µg/mL
- concentration at 0 h [8]: < 0.25 µg/mL
- concentration at 1 h [8]: 7.05 µg/mL
- concentration at 2 h [8]: 8.3 µg/mL
- concentration at 4 h [8]: 6.15 µg/mL
- concentration at 8 h [8]: 2.92 µg/mL
- concentration at 12 h [8]: 6.74 µg/mL
- concentration at 0 h [9]: 1.19 µg/mL
- concentration at 1 h [9]: 9.13 µg/mL
- concentration at 2 h [9]: 9.78 µg/mL
- concentration at 4 h [9]: 8.17 µg/mL
- concentration at 8 h [9]: 5.86 µg/mL
- concentration at 12 h [9]: 4.25 µg/mL
- Tmax [8]: 1 to 4 h
- Tmax [9]: 2 to 4 h
